The record followed here is patent US20220144839A1, “INDOLE AHR INHIBITORS AND USES THEREOF” (Ikena Oncology, Inc., priority 2018, published 2022).

Some results are limits rather than exact numbers.

The assay deals with T1, AHR (UniProt P35869).
T1 sequence (P35869 1-848): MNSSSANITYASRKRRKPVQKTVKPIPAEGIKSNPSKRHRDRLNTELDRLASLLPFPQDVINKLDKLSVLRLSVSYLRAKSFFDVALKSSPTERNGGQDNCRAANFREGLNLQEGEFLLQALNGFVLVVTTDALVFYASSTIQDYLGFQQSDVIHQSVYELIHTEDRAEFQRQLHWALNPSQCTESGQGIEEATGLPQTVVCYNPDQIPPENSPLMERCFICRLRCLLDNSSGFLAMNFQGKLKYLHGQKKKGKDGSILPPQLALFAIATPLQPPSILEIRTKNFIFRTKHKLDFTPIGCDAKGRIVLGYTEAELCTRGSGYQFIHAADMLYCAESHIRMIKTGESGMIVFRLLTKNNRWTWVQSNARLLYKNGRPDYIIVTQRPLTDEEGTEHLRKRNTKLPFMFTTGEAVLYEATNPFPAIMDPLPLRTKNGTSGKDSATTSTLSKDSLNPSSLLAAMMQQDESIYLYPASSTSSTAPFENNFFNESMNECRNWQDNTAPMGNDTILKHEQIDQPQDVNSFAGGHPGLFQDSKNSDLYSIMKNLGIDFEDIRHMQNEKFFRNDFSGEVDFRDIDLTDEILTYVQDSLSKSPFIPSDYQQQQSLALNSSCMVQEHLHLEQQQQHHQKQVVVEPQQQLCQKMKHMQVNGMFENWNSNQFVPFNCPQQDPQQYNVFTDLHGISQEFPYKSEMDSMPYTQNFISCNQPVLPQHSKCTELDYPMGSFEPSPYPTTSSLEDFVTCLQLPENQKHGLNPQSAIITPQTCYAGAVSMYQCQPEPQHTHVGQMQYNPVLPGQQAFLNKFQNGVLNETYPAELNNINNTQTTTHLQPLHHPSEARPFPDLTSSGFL
The experiment in a line: DRE-Luciferase Reporter Assay (Alternate Method), Example 1B. It is filed as cell-based. Conditions: concentration which inhibits half of the luciferase activity induced by AHR activating ligand; DRE-luciferase reporter cell line. As to the method:
AHR binds to Dioxin Responsive Elements (DRE) upstream of genes that it activates. One measure of AHR activity is activation of a reporter gene, such as luciferase, downstream of one or multiple DRE elements. Luciferase activity will reflect activation and inhibition of AHR in the cells expressing his reporter.
Murine Hepa1-6 or Hepa-1c1c7 or other murine cell line with a DRE-luciferase reporter either stably or transiently transfected were plated in media in plates (96-well, 384-well or other plates) and incubated overnight at 37° C. in a C02 incubator or compound and agonist were added at the time of plating. Likewise, human HepG2 or other human cell line with a DRE-luciferase reporter either stably or transiently transfected were plated in media in plates (96-well, 384-well or other plates) and incubated overnight at 37° C. in a C02 incubator or compound and agonist were added at the time of plating.
At the time that cells are plated or following incubation overnight, an AHR activating ligand, such as TCDD, kynurenine, ITE (2-(1H-indole-3-ylcarbonyl)-4-thiazolecarboxylic methyl ester), VAF347, BNF (beta-naphthoflavone), FICZ (6-formylindolo(3,2-b) carbazole or other AHR ligands, was added with or without AHR antagonist.
Cells were incubated for 4, 15 or 24 hours or another time point and then lysed for determination of luciferase activity as a read-out of the AHR activation or inhibition. Luciferase was measured with a commercial kit such as the Promega Luciferase kit or any kit or reagents that provide the luciferin substrate for measuring luciferase activity. The level of luciferase with only activating ligand added was the maximum signal while the luciferase with no ligand was the minimum signal. IC50 values were determined as the concentration which inhibits half of the luciferase activity.
(In general: A reporter such as luciferase makes a cellular process visible.)
In general, IC50 refers to the concentration that inhibits the measured activity by half. `CC(C)c1cnn2c(N[C@@H]3CCc4[nH]c5ccccc5c4C3)nc(-c3ccn(C)c(=O)c3)nc12` [Compound I-1, 4-[8-Isopropyl-4-[[(3R)-2,3,4,9-tetrahydro-1H-carbazol-3-yl]amino]pyrazolo[1,5-a][1,3,5]triazin-2-yl]-1-methyl-pyridin-2-one]: the IC50 was > 1500 nM. The same measure for `CC(C)c1cnn2c(N[C@@H]3CCc4[nH]c5ccccc5c4C3)nc(-c3ccc(N4CCOCC4)nc3)nc12` [Compound I-2, (3R)—N-[8-Isopropyl-2-(6-morpholino-3-pyridyl)pyrazolo[1,5-a][1,3,5]triazin-4-yl]-2,3,4,9-tetrahydro-1H-carbazol-3-amine]: > 1500 nM; for `COc1cncc(-c2nc(N[C@@H]3CCc4[nH]c5ccccc5c4C3)n3ncc(C(C)C)c3n2)c1` [Compound I-3, (3R)—N-[8-Isopropyl-2-(5-methoxy-3-pyridyl)pyrazolo[1,5-a][1,3,5]triazin-4-yl]-2,3,4,9-tetrahydro-1H-carbazol-3-amine]: > 1500 nM. The same measure for `NCc1cnn2c(N[C@@H]3CCc4[nH]c5ccccc5c4C3)nc(-c3cncc(F)c3)nc12` [Compound I-4, (3R)—N-[8-(Aminomethyl)-2-(5-fluoro-3-pyridyl)pyrazolo[1,5-a][1,3,5]triazin-4-yl]-2,3,4,9-tetrahydro-1H-carbazol-3-amine]: < 500 nM.

As for `CC(C)c1cnn2c(N[C@@H]3CCc4[nH]c5ccccc5c4C3)nc(-c3cncc(N(C)C)c3)nc12` [Compound I-5, (3R)—N-[2-[5-(Dimethylamino)-3-pyridyl]-8-isopropyl-pyrazolo[1,5-a][1,3,5]triazin-4-yl]-2,3,4,9-tetrahydro-1H-carbazol-3-amine], the IC50 is > 1500 nM.

For `CC(C)c1cnn2c(N[C@@H]3CCc4[nH]c5ccccc5c4C3)nc(-c3ccc(N(C)C)nc3)nc12` [Compound I-6, (3R)—N-[2-[6-(dimethylamino)-3-pyridyl]-8-isopropyl-pyrazolo[1,5-a][1,3,5]triazin-4-yl]-2,3,4,9-tetrahydro-1H-carbazol-3-amine], the IC50 was > 1500 nM. In the case of `CC(C)c1cnn2c(N[C@@H]3CCc4[nH]ncc4C3)nc(-c3cncc(F)c3)nc12` [Compound I-7a, 2-(5-fluoro-3-pyridyl)-8-isopropyl-N-[(5R)-4,5,6,7-tetrahydro-1H-indazol-5-yl]pyrazolo[1,5-a][1,3,5]triazin-4-amine], the IC50 is > 1500 nM. With `CC(C)c1cnn2c(N[C@H]3CCc4[nH]ncc4C3)nc(-c3cncc(F)c3)nc12` [Compound I-7b, 2-(5-fluoro-3-pyridyl)-8-isopropyl-N-[(5S)-4,5,6,7-tetrahydro-1H-indazol-5-yl]pyrazolo[1,5-a][1,3,5]triazin-4-amine] the figure was 1000 to 1500 nM; with `CC(C)c1cnn2c(N[C@H]3CCc4[nH]c5cccnc5c4C3)nc(-c3cncc(F)c3)nc12` [Compound I-8a, (8S)—N-[2-(5-Fluoro-3-pyridyl)-8-isopropyl-pyrazolo[1,5-a][1,3,5]triazin-4-yl]-6,7,8,9-tetrahydro-5H-pyrido[3,2-b]indol-8-amine], 1000 to 1500 nM. Take `CC(C)c1cnn2c(N[C@@H]3CCc4[nH]c5cccnc5c4C3)nc(-c3cncc(F)c3)nc12` [Compound I-8b, (8R)—N-[2-(5-Fluoro-3-pyridyl)-8-isopropyl-pyrazolo[1,5-a][1,3,5]triazin-4-yl]-6,7,8,9-tetrahydro-5H-pyrido[3,2-b]indol-8-amine]: the IC50 fell in the range of 1000 to 1500 nM. With `CC(C)(O)c1cnn2c(N[C@@H]3CCc4[nH]c5ccccc5c4C3)nc(-c3cncc(F)c3)nc12` [Compound I-9, 2-[2-(5-Fluoro-3-pyridyl)-4-[[(3R)-2,3,4,9-tetrahydro-1H-carbazol-3-yl]amino]pyrazolo[1,5-a][1,3,5]triazin-8-yl]propan-2-ol] the figure was < 500 nM; with `Fc1cncc(-c2nc(N[C@@H]3CCc4[nH]c5ccccc5c4C3)n3ncc(-c4cnn[nH]4)c3n2)c1` [Compound I-10, (3R)—N-[2-(5-Fluoro-3-pyridyl)-8-(1H-triazol-5-yl)pyrazolo[1,5-a][1,3,5]triazin-4-yl]-2,3,4,9-tetrahydro-1H-carbazol-3-amine], < 500 nM. With `C=C(C)c1cnn2c(N[C@@H]3CCc4[nH]c5ccccc5c4C3)nc(-c3cncc(F)c3)nc12` [Compound I-11, (3R)—N-[2-(5-Fluoro-3-pyridyl)-8-isopropenyl-pyrazolo[,5-a][1,3,5]triazin-4-yl]-2,3,4,9-tetrahydro-1H-carbazol-3-amine] the figure was < 500 nM; with `CC(C)c1cnn2c(N[C@@H]3CCc4[nH]c5ccccc5c4C3)nc(-n3cnc4ccccc43)nc12` [Compound I-12, (3R)—N-[2-(Benzimidazol-1-yl)-8-isopropyl-pyrazolo[1,5-a][1,3,5]triazin-4-yl]-2,3,4,9-tetrahydro-1H-carbazol-3-amine], 1000 to 1500 nM; with `CC(C)c1cnn2c(N[C@@H]3CCc4[nH]c5cnccc5c4C3)nc(-c3cncc(F)c3)nc12` [Compound I-13a, (6R)—N-[2-(5-fluoro-3-pyridyl)-8-isopropyl-pyrazolo[1,5-a][1,3,5]triazin-4-yl]-6,7,8,9-tetrahydro-5H-pyrido[3,4-b]indol-6-amine], > 1500 nM. For `CC(C)c1cnn2c(N[C@H]3CCc4[nH]c5cnccc5c4C3)nc(-c3cncc(F)c3)nc12` [Compound I-13b, (6S)—N-[2-(5-fluoro-3-pyridyl)-8-isopropyl-pyrazolo[1,5-a][1,3,5]triazin-4-yl]-6,7,8,9-tetrahydro-5H-pyrido[3,4-b]indol-6-amine], the IC50 is > 1500 nM. The same measure for `Cc1cnc2c(N[C@@H]3CCc4[nH]c5ccccc5c4C3)nc(-c3cncc(F)c3)nc2c1` [Compound I-14, (3R)—N-[2-(5-fluoro-3-pyridyl)-7-methyl-pyrido[3,2-d]pyrimidin-4-yl]-2,3,4,9-tetrahydro-1H-carbazol-3-amine]: 1000 to 1500 nM. With `CC(C)c1cnn2c(N[C@@H]3CCc4[nH]c5ccccc5c4C3)nc([C@@H]3CCCOC3)nc12` [Compound I-15a, (3R)—N-(8-isopropyl-2-tetrahydropyran-3-yl-pyrazolo[1,5-a][1,3,5]triazin-4-yl)-2,3,4,9-tetrahydro-1H-carbazol-3-amine] the figure was > 1500 nM. The same measure for `CC(C)c1cnn2c(N[C@@H]3CCc4[nH]c5ccccc5c4C3)nc([C@H]3CCCOC3)nc12` [Compound I-15b, (3R)—N-[8-isopropyl-2-[(3R)-tetrahydropyran-3-yl]pyrazolo[1,5-a][1,3,5]triazin-4-yl]-2,3,4,9-tetrahydro-1H-carbazol-3-amine]: > 1500 nM; for `CC(C)c1cnn2c(N[C@@H]3CCc4[nH]c5ccccc5c4C3)nc(-n3cncn3)nc12` [Compound I-16, (3R)—N-[8-Isopropyl-2-(1,2,4-triazol-1-yl)pyrazolo[1,5-a][1,3,5]triazin-4-yl]-2,3,4,9-tetrahydro-1H-carbazol-3-amine]: > 1500 nM; for `CC(C)c1cnn2c(N[C@@H]3CCc4[nH]c5ccccc5c4C3)nc(C3CCOC3)nc12` (stereo partly drawn) [Compound I-17, (3R)—N-(8-isopropyl-2-tetrahydrofuran-3-yl-pyrazolo[1,5-a][1,3,5]triazin-4-yl)-2,3,4,9-tetrahydro-1H-carbazol-3-amine]: 500 to 1000 nM. For the compound `Fc1cncc(-c2nc(N[C@@H]3CCc4[nH]c5ccccc5c4C3)n3ncc(C4CCOC4)c3n2)c1` (stereo partly drawn) [Compound I-18, (3R)—N-[2-(5-fluoro-3-pyridyl)-8-tetrahydrofuran-3-yl-pyrazolo[1,5-a][1,3,5]triazin-4-yl]-2,3,4,9-tetrahydro-1H-carbazol-3-amine], the IC50 was < 500 nM. With `Cc1nccn1-c1nc(N[C@@H]2CCc3[nH]c4ccccc4c3C2)n2ncc(C(C)C)c2n1` [Compound I-19, (3R)—N-[8-Isopropyl-2-(2-methylimidazol-1-yl)pyrazolo[1,5-a][1,3,5]triazin-4-yl]-2,3,4,9-tetrahydro-1H-carbazol-3-amine] the figure was > 1500 nM.
